Measurements published in patent publication US20130309224A1 (BOEHRINGER INGELHEIM INTERNATIONAL GMBH, priority 2012, published 2013).

T1: human CD37 (human, UniProt P11049 1-281, limits assumed)
T1 sequence (looked up): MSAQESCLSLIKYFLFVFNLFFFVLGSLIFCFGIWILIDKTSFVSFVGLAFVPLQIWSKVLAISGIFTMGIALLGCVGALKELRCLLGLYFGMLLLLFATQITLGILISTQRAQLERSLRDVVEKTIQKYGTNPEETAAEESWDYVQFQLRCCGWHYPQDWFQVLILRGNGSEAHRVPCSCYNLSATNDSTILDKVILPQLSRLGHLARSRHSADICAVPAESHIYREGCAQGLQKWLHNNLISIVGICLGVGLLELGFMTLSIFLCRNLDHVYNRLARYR

T2: mouse CD37 (mouse, UniProt Q61470 1-281, limits assumed)
T2 sequence (looked up): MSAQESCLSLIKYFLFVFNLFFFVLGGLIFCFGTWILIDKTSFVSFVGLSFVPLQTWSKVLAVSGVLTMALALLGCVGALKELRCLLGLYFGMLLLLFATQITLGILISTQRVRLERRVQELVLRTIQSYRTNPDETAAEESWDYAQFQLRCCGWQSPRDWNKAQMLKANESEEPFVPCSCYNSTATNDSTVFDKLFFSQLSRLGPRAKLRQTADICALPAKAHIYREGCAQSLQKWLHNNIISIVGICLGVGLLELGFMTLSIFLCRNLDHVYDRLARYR


Columns and labels:
DoHH2 tumor cells = test: Example 2: DoHH2 human xenograft tumor model, A2 with bendamustine; format: in vivo, CB-17 SCID mice; settings: A2 10 mg/kg twice weekly, bendamustine 10 mg/kg twice weekly ip; compared to control treated animals
[1] = tested on: Ramos Burkitt lymphoma cells; test: Apoptosis assay (Annexin V/PI staining, FACS) on Ramos cells; format: cell-based, human; settings: 48 h, A2 10 μg/ml, AnnexinV positive cells corrected for background
[2] = tested on: human follicular lymphoma (DOHH2); test: Example 4: DOHH2 follicular lymphoma xenograft, A2 with bendamustine, tumor volume; format: in vivo, C.B-17 scid mice
[3] = Example 4: body weight as indicator of tolerability; settings: for tolerability / body weight loss (in words): A2 10 mg/kg, bendamustine 20 mg/kg i.p.
[4] = tested on: Raji Burkitt lymphoma cells; test: Apoptosis assay (Annexin V/PI staining, FACS) on Raji cells; format: cell-based; settings: 48 h, A2 10 μg/ml, AnnexinV positive cells corrected for background
human CD37 = biological target: T1, human CD37; test: not described (statement in the discussion of Example 3)
mouse CD37 = biological target: T2, mouse CD37; test: as above
[5] = bendamustine concentration 400 μM

| binding result (human CD37) | binding result (mouse CD37) | Molecule | anti-tumor effect (tumor growth retardation) (DoHH2 tumor cells) | % apoptotic cells ([1]; bendamustine concentration 100 μM) | % apoptotic cells [1, 5] | inhibition of DOHH2 tumor growth (in words) ([2]; A2 10 mg/kg, bendamustine 20 mg/kg i.p.) | CR [x/7] ([2]; complete tumor regressions, day 16) | tumors growth inhibited (of 7 treated) ([2]; day 16) | TGI [%] ([2]; median, day 16, vs vehicle control, A2 10 mg/kg i.p. d1,d5,d8,d12,d15, bendamustine 20 mg/kg i.p. two injections) | PR [x/7] ([2]; partial tumor regressions, day 16) | tolerability / body weight loss (in words) [3] | tolerability / body weight loss (in words) ([3]; listed as Bendamustine) | body weight loss in median within the first week of treatment ([3]; bendamustine i.p. day 2 and 6) | % apoptotic cells ([4]; bendamustine concentration 200 μM) | % apoptotic cells [4, 5] |
| --- | --- | --- | --- | --- | --- | --- | --- | --- | --- | --- | --- | --- | --- | --- | --- |
|  |  | Cn1c(CCCC(=O)O)nc2cc(N(CCCl)CCCl)ccc21 [bendamustine, 4-[5-[Bis(2-chloroethyl)amino]-1-methylbenzimidazol-2-yl]butanoic acid, reference compound] | significant anti-tumor effect | 19% | 35% | significant inhibition of tumor growth | 0 x/7 | 7 tumors | 57% | 0 x/7 | moderately tolerated | resulted in weight loss | up to 7.9% | 10% | 13% |
| binds | no binding | Antibody A2 (antibody, human IgG1, kappa, V domains shown, also called mAb A2; MAb A2) VH: AVQLQQSGPELEKPGASVKISCKASGYSFTGYNMNWVKQNNGKSLEWIGNIDPYYGGTTYNRKFKGKATLTVDKSSSTAYMQLKSLTSEDSAVYYCARSVGPMDYWGQGTSVTVSS VL: DIQMTQSPASLSASVGETVTITCRTSENVYSYLAWYQQKQGKSPQLLVSFAKTLAEGVPSRFSGSGSGTQFSLKISSLQPEDSGSYFCQHHSDNPWTFGGGTELEIKR |  |  |  |  |  |  |  |  |  |  |  |  |  |
